The values that follow come from patent publication US10744128B2, “6-(5-membered heteroaryl)isoquinolin-3-yl-(5-membered heteroaryl) carboxamides and preparation and use thereof” (Samumed, LLC, priority 2017, dated 2020).

Molecules are shown by their SMILES. Some results are limits rather than exact numbers.

The test system of assay [1] is SW480 colon carcinoma cells. Briefly: Cell viability assay (CellTiter-Glo) in SW480 cells. The note with it: Homo sapiens, 96 h, four days. The format is cell-based, human.
Assay [2] concerns primary human fibroblasts derived from IPF patients (LL29 cells), α-smooth muscle actin. Nature of the assay: Inhibition of fibrotic process: αSMA in TGF-β1 treated LL29 fibroblasts. It counts as cell-based. The following applies: Homo sapiens, Fibroblast, 96 h; LL29 cells, TGF-β1 20 ng/mL, 4 days, % cells positive for αSMA. A digest of the protocol: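 LL29 fibroblasts from IPF patients, in F12 medium with 1% FBS, treated with TGF-β1 plus compound; TGF-β1 with DMSO as positive control, DMSO alone as negative control. After 4 days' incubation, SYTOX green nucleic acid stain added at 1 μM final, 30 min at room temperature.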

For the next assay, the target named is recombinant GSK3β kinase (Homo sapiens (Human), UniProt P49841). Briefly: GSK3β kinase assay (Ser/Thr 09 peptide Z-lyte, FRET). The note with it: GSK3β kinase, 46 μM ATP, one hour; method calls values IC50. It counts as biochemical.
recombinant GSK3β kinase, sequence (P49841 whole entry): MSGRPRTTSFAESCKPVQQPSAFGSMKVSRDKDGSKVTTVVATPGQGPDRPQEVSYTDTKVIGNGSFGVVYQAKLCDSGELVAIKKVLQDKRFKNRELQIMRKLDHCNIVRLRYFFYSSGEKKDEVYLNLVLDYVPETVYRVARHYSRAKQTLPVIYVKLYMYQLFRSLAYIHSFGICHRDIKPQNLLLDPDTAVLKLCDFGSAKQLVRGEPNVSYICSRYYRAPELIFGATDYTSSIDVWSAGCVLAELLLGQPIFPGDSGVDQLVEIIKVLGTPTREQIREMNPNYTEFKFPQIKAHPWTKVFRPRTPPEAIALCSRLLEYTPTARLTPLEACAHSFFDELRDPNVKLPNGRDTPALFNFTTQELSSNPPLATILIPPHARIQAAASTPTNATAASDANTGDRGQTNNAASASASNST
The target of assay [3] is recombinant DYRK1A kinase (Homo sapiens (Human), UniProt Q13627). Nature of the assay: DYRK1A kinase assay (Ser/Thr 18 peptide Z-lyte, FRET). The note with it: DYRK1A kinase, 30 μM ATP, one hour; method calls values IC50.
Procedure: Each compound was dissolved in DMSO as a 10 mM stock and used to prepare compound source plates.
This is a non-radioactive assay using fluorescence resonance energy transfer (FRET) between coumarin and fluorescein to detect kinase activity which is represented as a ratio of coumarin emission/fluorescein emission.
The mixture was allowed to incubate with the representative compounds for one hour at room temperature. All reactions were performed in duplicate. Unphosphorylated (“0% Control”) and phosphorylated (“100% control”) forms of Ser/Thr 18 served as control reactions. Additionally, an 11-point dose-response curve of Staurosporine (1 uM top) was run to serve as a positive compound control.
After incubation, Development Reagent A was diluted in Development Buffer then added to the reaction and allowed to further incubate for one hour at room temperature.
Dose-response curves were generated and inhibitory concentration (IC50) values were calculated using non-linear regression curve fit in the Dotmatics' Studies Software (Bishops Stortford, UK).
The test system of another assay is IL-6. Nature of the assay: IL-6 inhibition in LPS-stimulated human peripheral blood mononuclear cells (HTRF). The format is cell-based. The following applies: Homo sapiens, PBMC; for EC50: huPBMCs, LPS 50 ng/mL, 22 hours, IL-6 HTRF. A digest of the protocol:
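Fresh human PBMCs at 1×10e6 cells/mL in 1% FBS-RPMI were pretreated with compound for 2 h, then stimulated with 50 ng/mL E. coli 0111:B4 LPS for a further 22 h at 37 °C. IL-6 was measured by HTRF (665/620 nm ratio). Values were normalized to DMSO and fitted 4-parameter for EC50.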
In general terms: TR-FRET usually uses a lanthanide donor and a delayed reading to cut background.

Assay [4] relates to Tau phosphorylation at Ser396 (pSer396). Nature of the assay: Tau phosphorylation (pSer396) assay in SH-SY5Y cells. It counts as cell-based, human. The following applies: Homo sapiens; SH-SY5Y cells, overnight (16-18 h), pSer396 Tau ELISA; read-out: EC50. On the technique in general: In an ELISA, binding on a coated surface is turned into a signal by an enzyme label.
Procedure: Two days before treatment, cells were seeded onto 96 well plates at 5×10^4 cells/well.
The above synthesized compounds were screened using the cell assay procedure to assess decrease Tau phosphorylation at Ser396 (pSer396) described below.
Cells were lysed with RIPA buffer complemented with phosphatase and protease inhibitors then lysates were spun down at 12,000 g for 10 min to remove any cellular debris.
The subject of assay [5] is Wnt-responsive promoter (Sp5-Luc reporter) in SW480 colon carcinoma cells. Nature of the assay: Sp5-Luc reporter gene screening assay for Wnt activity in SW480 cells. It counts as cell-based, human. The following applies: Homo sapiens, 36 to 48 hours, luminescence. A digest of the protocol:
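SW480 cells stably carrying a luciferase reporter under an Sp5 promoter with eight TCF/LEF sites, plated at 4,000 cells/well in DMEM with 1% FBS and incubated 36 to 48 hours at 37° C. Luminescence normalized to DMSO-only cells; EC50 fitted by four-parameter nonlinear regression.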
(In general: Reporter assays use an easily measured gene product as a stand-in for the process of interest.)

What is called EC50 is the concentration that produces a half-maximal response. As a reminder, the inhibition is the percentage by which the read-out fell short of the control. Take `Cn1cc(-c2ccc3cnc(NC(=O)c4csc(C5CCN(CCF)CC5)n4)cc3c2)cn1` [Compound 27, 2-(1-(2-Fluoroethyl)piperidin-4-yl)-N-(6-(1-methyl-1H-pyrazol-4-yl)isoquinolin-3-yl)thiazole-4-carboxamide]: the EC50 in assay [1] is 3650 nM; in assay [2], 2520 nM; on recombinant GSK3β kinase, 3600 nM; in assay [3] it was 14 nM; in the assay on IL-6, more than 10000 nM; in assay [4], more than 10000 nM. The compound also had an EC50 in assay [5] of 300 nM. In addition, in the assay with IL-6 (read-out: percent inhibition at 10 μM), the inhibition at 10 µM was determined as 34.5%.

For the compound `Cc1ncc(C(=O)Nc2cc3cc(-c4cnn(C5CCN(C)CC5)c4)ccc3cn2)s1` [Compound 28, 2-Methyl-N-(6-(1-(1-methylpiperidin-4-yl)-1H-pyrazol-4-yl)isoquinolin-3-yl)thiazole-5-carboxamide], the EC50 was 340 nM in assay [1]; 381 nM in assay [2]; more than 10000 nM at recombinant GSK3β kinase; 24 nM in assay [3]; 9980 nM in the assay on IL-6; 2100 nM in assay [4]. This compound also gave an EC50 in assay [5] of 1160 nM.

Consider `Cc1ncc(C(=O)Nc2cc3cc(-c4cnc(C)n4C)ccc3cn2)s1` [Compound 62, N-(6-(1,2-Dimethyl-1H-imidazol-5-yl)isoquinolin-3-yl)-2-methylthiazole-5-carboxamide], for which the EC50 is 23 nM in assay [1]; 644 nM in assay [2]; 450 nM on recombinant GSK3β kinase; 2 nM in assay [3]; 2760 nM with IL-6; 193 nM in assay [4]. The compound further registered an EC50 in assay [5] of 110 nM.

With `Cc1ncc(-c2ccc3cnc(NC(=O)Cn4ccnc4)cc3c2)o1` [Compound 64, 2-(1H-imidazol-1-yl)-N-(6-(2-methyloxazol-5-yl)isoquinolin-3-yl)acetamide], the EC50 turned out to be 836 nM in assay [1]; 187 nM in assay [2]; 9 nM at recombinant GSK3β kinase; 4 nM in assay [3]; 427 nM with IL-6; 85 nM in assay [4]. This compound yielded an EC50 in assay [5] of 1150 nM.
